# Source: article PMC4409337, “Immucillins Impair Leishmania (L.) infantum chagasi and Leishmania (L.) amazonensis Multiplication In Vitro” (PLoS ONE, 2015)
# Where two headings read alike, the source gives them in different places.
# Columns and labels:
# [1] = Macrophage viability and cytotoxicity (Trypan Blue); conditions: female, BALB/c, mouse, peritoneal macrophages
# Procedure: Alternatively, the immucillins were added at 0, 24 and 48 h and viability assessed after 72h. […] The amastigote growth was assessed 24 h after the last drug addition, on 200 cells in Giemsa stained coverslips and expressed as phagocytic index = percent of infected macrophages x average number of intracellular amastigotes. […] All experiments with mice were reviewed and approved by the Animal Care and Use Committee of the Instituto de Biofísica Carlos Chagas Fo.-UFRJ (CAUAP-CONCEA, Brazil, IMPPG-016) and were performed according to the guidelines of the National Institutes of Health, USA. We made all efforts in order to minimize animal suffering.
# [2] = system: L. (L.) infantum chagasi promastigotes; test: In vitro growth of promastigotes in FBS supplemented Schneider's insect medium; type: cell-based, Leishmania (L.) infantum chagasi; conditions: Leishmania infantum
# From the text: The strain of Leishmania (L.) infantum chagasi MHOM/BR/1974/PP75 was obtained from the Leishmania Type Culture Collection (Fundacão Oswaldo Cruz, Rio de Janeiro, RJ, Brazil) and the strain of Leishmania (L.) amazonensis (MHOM/BR/1975/Josefa) was kindly given by Professor Rosâ[…] from Universidade Federal do Rio de Janeiro. Promastigotes were maintained by weekly transfers in screw-capped glass tubes containing Schneider's insect medium (Sigma Aldrich, MO, USA), pH 7.0, supplemented with 10% Fetal Bovine Serum (FBS) at 26°C. […] Log phase promastigotes of L. (L.) infantum chagasi and L. […] Promastigotes were recorded in a Neubauer chamber after 24, 48, 72 and 96 hours of incubation at 26°C. […] The concentration of adenosine in Schneider s insect serum supplemented medium was assessed by HPLC using a C-18 reverse-phase column as described.
# [3] = system: L. (L.) amazonensis promastigotes; test: as above; type: cell-based, Leishmania (L.) amazonensis; conditions: Leishmania amazonensis
# From the text: The strain of Leishmania (L.) infantum chagasi MHOM/BR/1974/PP75 was obtained from the Leishmania Type Culture Collection (Fundacão Oswaldo Cruz, Rio de Janeiro, RJ, Brazil) and the strain of Leishmania (L.) amazonensis (MHOM/BR/1975/Josefa) was kindly given by Professor Rosâ[…] from Universidade Federal do Rio de Janeiro. Promastigotes were maintained by weekly transfers in screw-capped glass tubes containing Schneider's insect medium (Sigma Aldrich, MO, USA), pH 7.0, supplemented with 10% Fetal Bovine Serum (FBS) at 26°C. Stock solutions (20 mM) of immucillins IA […] prepared using Milli-Q purified water. Log phase promastigotes of L. (L.) infantum chagasi and L. […] Promastigotes were recorded in a Neubauer chamber after 24, 48, 72 and 96 hours of incubation at 26°C. […] We also assayed the possibility of reversing the inhibitory effect of IA in RPMI medium by the addition of adenosine to the culture medium. The concentration of adenosine in Schneider s insect serum supplemented medium was assessed by HPLC using a C-18 reverse-phase column as described.
# [4] = system: L. (L.) infantum chagasi promastigotes; test: Transmission electron microscopy of treated promastigotes; type: cell-based, Leishmania (L.) infantum chagasi; conditions: 10 μM, 72 h
# From the text: The cells were washed with Milli Q water, dehydrated in increasing concentration of acetone and embedded in Epon (1: 1) (PolyBed 812). The ultrathin sections were obtained, contrasted with 5% uranyl acetate and lead citrate and observed under a Joel 1200 electron microscope.
# [5] = target: T1, Nucleoside hydrolase NH36 (Leishmania donovani, UniProt Q8WQX2); test: Ki determination: inhibition of NH36 activity by immucillins; type: biochemical, Leishmania (L.) donovani; conditions: 10 mM inosine as substrate, 0.5 nM NH36, pH 7.4, room temperature
# T1 sequence (Q8WQX2 1-314): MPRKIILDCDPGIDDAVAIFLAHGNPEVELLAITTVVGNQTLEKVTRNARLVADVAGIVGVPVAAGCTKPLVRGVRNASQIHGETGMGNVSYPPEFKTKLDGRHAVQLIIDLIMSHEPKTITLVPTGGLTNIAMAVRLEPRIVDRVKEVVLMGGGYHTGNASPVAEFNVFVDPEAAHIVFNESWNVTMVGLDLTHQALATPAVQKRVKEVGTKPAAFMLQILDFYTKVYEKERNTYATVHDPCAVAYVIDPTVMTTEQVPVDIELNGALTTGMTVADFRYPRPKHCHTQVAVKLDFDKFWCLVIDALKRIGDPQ
# Procedure: BL21DE3 E.coli were transformed with the synthetic plasmid pET 28b encoding the gene of NH36 of Leishmania (L.) donovani (EMBL, Genbank and DDJB data bases, access number AY007193) with a His6tag at the C-terminal. Expression was induced with 0.5 mM IPTG and overnight incubation at 20°C. Purification of NH36 was performed on a column of Ni-NTA Superflow resin (Qiagen, USA) eluted by a stepwise imidazole gradient and monitored by SDS-polyacrylamide gel electrophoresis and protein assay. The extinction coefficient of NH36 is 21.437 mM^-1 cm^-1 at 280 nm, as calculated with the ProtParam program from ExPASy, and was used to estimate protein concentration (http://ca.expasy.org/seqanalref/). The yield of NH36 after purification was 11.87 mg per Liter of bacterial growth culture. Non-specific His-proteins with weak interactions were eluted with 50–100 mM imidazole (S1 Fig). The purified NH36 started to elute with 150 mM imidazole. We used 250 mM of imidazol in elution buffer for purification of NH36.
# The reaction mixtures contained 10 mM inosine as substrate, 50 mM Hepes (pH 7.4), 100 mM KCl, 5 mM DTT and 1 unit XOD. The hydrolysis of inosine to hypoxanthine and ribose was followed by continuous reading of optical absorbance at 293 nm, using variable concentrations of inhibitors in a CARY 300UV-visible spectrophotometer. Controls without enzyme and without inhibitors were included in all inhibition assays. The inhibition constant for each immucillin was obtained, using GraFit 5 (Erithacus Software), by fitting initial rates with variable inhibitor concentrations to the equation (vi/v0 = [S] / Km + [S] + Km[I] / Ki), where v i is the initial rate in the presence of the inhibitor, v 0 is the initial rate in the absence of the inhibitor, K m is the Michaelis constant for inosine, [S] and [I] are inosine and inhibitor concentrations, respectively, and Ki is the inhibition constant.
compound,measurement,setting,value
Nc1ncnc2c(C3N[C@H](CO)[C@@H](O)[C@H]3O)c[nH]c12 (stereo partly drawn) [IA],CC50 at 48 h,[1],900 µM
same,IC50,"[2]; drugs added at 0, 24 and 48 h, after 48h, read-out: IC50 on promastigote growth, daily addition",3.6 µM
same,IC50,"[2]; drugs added at 0, 24 and 48 h, at 72 and 96 h, read-out: IC50 on promastigote growth, daily addition",< 0.05 µM
same,IC50,"[2]; single addition at 0 h, evaluated after 48 hours, 26°C, read-out: IC50 (CI 95%) on L. (L.) infantum chagasi promastigotes in vitro growth",23.9 µM
same,inhibition at 500 µM,"[2]; 500 μM, after 96 h of culture, read-out: percent inhibition on L. (L.) infantum chagasi promastigote growth",78%
same,inhibition at 500 µM,"[3]; 500 μM, after 96 h of culture, read-out: percent inhibition on L. (L.) amazonensis replication",76%
same,IC50,"[3]; single addition at 0 h, evaluated after 48 hours, 26°C, read-out: IC50 (CI 95%) on L. (L.) amazonensis promastigotes in vitro growth",48.7 µM
same,effect on cellular ultrastructure of promastigotes,[4],global alterations on their cellular morphology
same,Ki,[5],0.08 µM
